Experimental data as given in patent publication US12226405B2, “Compounds and compositions for inhibiting the activity of HIF2-alpha and their methods of use” (Novartis AG, priority 2020, dated 2025).
Where two headings read alike, the source gives them in different places.

Experiments:
[1] = test system: HIF2α-regulated expression of the endogenous target gene hEGLN3 in 786-O cells; test: Cellular iScript assay for HIF2α (quantitative RT-PCR of hEGLN3); type: cell-based, human; settings: Homo sapiens, 786-0, 48 hours incubation
Outline: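 786-O cells were exposed to eleven 2-fold compound dilutions for 48 h at 37° C. Lysates underwent one-step TaqMan qRT-PCR for hEGLN3 with beta-actin as reference; 2^(−ΔΔCt) versus DMSO, as % of control, was fit with a four-parameter model to give IC50.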

[2] = target: T1, HIF2α PAS-B domain (236-350, biotinylated on the N-terminus) (Homo sapiens (Human), UniProt Q99814); test: biochemical
Procedure: (§1) The assay buffer contained 50 mM Tris-HCl pH7 (Sigma), 20 mM NaCl (Fluka), 0.02% BSA (Sigma), 0.005% Triton X-100 (Pierce) and 1 mM DTT (Fluka). After a 30 min incubation period, 5 μL Streptavidin PVT SPA Beads (Perkin Elmer) at 1.2 mg/mL, diluted in the buffer, were added.

[3] = test system: HIF2α-dependent transcription in 786-O-HRE-Luc cells; test: In vitro cellular hypoxia response element (HRE) reporter gene assay (RGA) for HIF2α; type: cell-based, human; settings: Homo sapiens, 24 hours incubation
Outline: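 Renal carcinoma cells carrying a 4×HRE-driven PEST-destabilised firefly luciferase were treated a day after seeding with eleven 2-fold compound dilutions (0.1% DMSO) for 24 h at 37° C. BrightGlo luminescence, background-subtracted and expressed as % of DMSO control, was fitted four-parametrically for IC50.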

[4] = target: T1, HIF2α PAS-B domain (236-350, biotinylated on the N-terminus)
Procedure: as §1

T1 sequence (Q99814 236-350): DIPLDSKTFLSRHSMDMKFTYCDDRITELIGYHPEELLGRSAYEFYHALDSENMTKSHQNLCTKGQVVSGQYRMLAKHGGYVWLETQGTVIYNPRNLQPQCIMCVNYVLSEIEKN

Row | SMILES | IC50 [1] [nM] | IC50 [2] [nM] | IC50 [3] [nM] | IC50 [4] [nM]
1 | Fc1cccc2c1OC[C@H](F)[C@@]21CN2C=C(C(F)(F)F)C=C(OC(F)F)C2=N1 (racemic) [Example 101, rac-8′-(difluoromethoxy)-3,8-difluoro-6′-(trifluoromethyl)-3′H-spiro[chromane-4,2′-imidazo[1,2-a]pyridine]] | 149 | 15 |  | 
2 | FC(F)OC1=CC(C(F)(F)F)=CN2CC3(CCCc4cnccc43)N=C12 (racemic) [Example 93, rac-8-(difluoromethoxy)-6-(trifluoromethyl)-7′,8′-dihydro-3H,6′H-spiro[imidazo[1,2-a]pyridine-2,5′-isoquinoline]] | 178 | 12 |  | 
3 | FC(F)OC1=CC(C(F)(F)F)=CN2C[C@]3(CCOc4cc(C(F)(F)F)ccc43)N=C12 [(R)-8′-(difluoromethoxy)-6′,7-bis(trifluoromethyl)-3′H-spiro[chroman-4,2′-imidazo[1,2-a]pyridine]] |  | > 10000 |  | 
4 | N#Cc1ccc2c(c1F)C(F)(F)CC[C@@]21CN2C=C(C(F)(F)F)C=C(OC(F)F)C2=N1 [Example 15, (S)-8-(difluoromethoxy)-4′,4′,5′-trifluoro-6-(trifluoromethyl)-3′,4′-dihydro-2′H,3H-spiro[imidazo[1,2-a]pyridine-2,1′-naphthalene]-6′-carbonitrile] | 128 |  | 392 | 16
5 | Cc1ccc2c(c1F)OCC[C@@]21CN2C=C(C(F)(F)F)C=C(OC(F)F)C2=N1 [Example 46, (S)-8′-(difluoromethoxy)-8-fluoro-7-methyl-6′-(trifluoromethyl)-3′H-spiro[chroman-4,2′-imidazo[1,2-a]pyridine]] | 50 |  | 68 | 13
6 | Fc1c(C(F)(F)F)ccc2c1CC[C@@]21CN2C=C(C(F)(F)F)C=C(OC(F)F)C2=N1 [Example 74, (S)-8-(difluoromethoxy)-4′-fluoro-5′,6-bis(trifluoromethyl)-2′,3′-dihydro-3H-spiro[imidazo[1,2-a]pyridine-2,1′-indene]] | 108 |  | 517 | ≤ 10
7 | FC(F)OC1=CC(C(F)(F)F)=CN2C[C@@]3(CCc4cc(C(F)(F)F)ncc43)N=C12 [Example 3, (S)-8′-(difluoromethoxy)-3,6′-bis(trifluoromethyl)-5,6-dihydro-3′H-spiro[cyclopenta[c]pyridine-7,2′-imidazo[1,2-a]pyridine]] | 187 |  | > 10000 | 12
8 | COc1ccc2c(c1F)CCC[C@@]21CN2C=C(C(F)(F)F)C=C(F)C2=N1 [Example 76, (S)-5′,8-difluoro-6′-methoxy-6-(trifluoromethyl)-3′,4′-dihydro-2′H,3H-spiro[imidazo[1,2-a]pyridine-2,1′-naphthalene]] | 175 |  | 777 | 49
9 | FC(F)OC1=CC(C(F)(F)F)=CN2C[C@@]3(CCC(F)(F)c4c3ccnc4C(F)F)N=C12 [Example 70, (S)-8-(difluoromethoxy)-1′-(difluoromethyl)-8′,8′-difluoro-6-(trifluoromethyl)-7′,8′-dihydro-3H,6′H-spiro[imidazo[1,2-a]pyridine-2,5′-isoquinoline]] | 96 |  | 1670 | 20
10 | Fc1c(OC(F)F)ccc2c1OCC[C@@]21CN2C=C(C(F)(F)F)C=C(OC(F)F)C2=N1 [Example 54, (S)-7,8′-bis(difluoromethoxy)-8-fluoro-6′-(trifluoromethyl)-3′ H-spiro[chroman-4,2′-imidazo[1,2-a]pyridine]] | 85 |  | 317 | 33
11 | Fc1c(Cl)ccc2c1COCC[C@@]21CN2C=C(C(F)(F)F)C=C(OC(F)F)C2=N1 [Example 119, (S)-8-chloro-8′-(difluoromethoxy)-9-fluoro-6′-(trifluoromethyl)-3,4-dihydro-1H,3′H-spiro[benzo[c]oxepine-5,2′-imidazo[1,2-a]pyridine]] | 97 |  | 292 | 19
12 | CSc1ccc2c(c1F)OCC[C@@]21CN2C=C(C(F)(F)F)C=C(OC(F)F)C2=N1 [Example 99, (S)-8′-(difluoromethoxy)-8-fluoro-7-(methylthio)-6′-(trifluoromethyl)-3′H-spiro[chromane-4,2′-imidazo[1,2-a]pyridine]] | 71 |  | 286 | 10
13 | FC(F)OC1=CC(C(F)(F)F)=CN2C[C@@]3(N=C12)c1ccc(I)cc1OC[C@@H]3F [Example 60, (2′S,3R)-8′-(difluoromethoxy)-3-fluoro-7-iodo-6′-(trifluoromethyl)-3′H-spiro[chroman-4,2′-imidazo[1,2-a]pyridine]] | 27 |  | 65 | 6
14 | FC(F)OC1=CC(C(F)(F)F)=CN2C[C@@]3(CCCc4ccccc43)N=C12 [Example 12, (S)-8-(difluoromethoxy)-6-(trifluoromethyl)-3′,4′-dihydro-2′H,3H-spiro[imidazo[1,2-a]pyridine-2,1′-naphthalene]] | 59 |  | 250 | 8
15 | Fc1ccc2c(c1F)CCC[C@@]21CN2C=C(C(F)(F)F)C=C(OC(F)F)C2=N1 [Example 85, (S)-8-(difluoromethoxy)-5′,6′-difluoro-6-(trifluoromethyl)-3′,4′-dihydro-2′H,3H-spiro[imidazo[1,2-a]pyridine-2,1′-naphthalene]] | 71 |  | 204 | 4
16 | O=C1c2c(ccc(Br)c2F)[C@]2(CN3C=C(C(F)(F)F)C=C(OC(F)F)C3=N2)CC1(F)F [Example 17, (S)-6′-bromo-8-(difluoromethoxy)-3′,3′,5′-trifluoro-6-(trifluoromethyl)-2′H,3H-spiro[imidazo[1,2-a]pyridine-2,1′-naphthalen]-4′(3′H)-one] | 199 |  | 466 | 62
17 | FC(F)(F)C1=CN2C[C@@]3(CCOc4cc(C(F)(F)F)ccc43)N=C2C(Cl)=C1 [Example 53, (S)-8′-chloro-6′,7-bis(trifluoromethyl)-3′H-spiro[chroman-4,2′-imidazo[1,2-a]pyridine]] | 184 |  | 839 | 14
18 | FC(F)OC1=CC(C(F)(F)F)=CN2C[C@@]3(CCOc4c(Br)cccc43)N=C12 [Example 107, (S)-8-bromo-8′-(difluoromethoxy)-6′-(trifluoromethyl)-3′H-spiro[chromane-4,2′-imidazo[1,2-a]pyridine]] | 189 |  | 807 | 7
19 | Fc1cccc2c1OC[C@H](F)[C@@]21CN2C=C(C(F)(F)F)C=C(OC(F)F)C2=N1 [Example 62, (2′S,3R)-8′-(difluoromethoxy)-3,8-difluoro-6′-(trifluoromethyl)-3′H-spiro[chroman-4,2′-imidazo[1,2-a]pyridine]] | 102 |  | 484 | 13
20 | Fc1c(Cl)ccc2c1OCC[C@@]21CN2C=C(C(F)(F)F)C=C(OC(F)F)C2=N1 [Example 43, (S)-7-chloro-8′-(difluoromethoxy)-8-fluoro-6′-(trifluoromethyl)-3′H-spiro[chroman-4,2′-imidazo[1,2-a]pyridine]] | 59 |  | 180 | 10
21 | Fc1c(Br)ccc2c1CCC[C@@]21CN2C=C(C(F)(F)F)C=C(OC(F)F)C2=N1 [Example 7, (S)-6′-bromo-8-(difluoromethoxy)-5′-fluoro-6-(trifluoromethyl)-3′,4′-dihydro-2′H,3H-spiro[imidazo[1,2-a]pyridine-2,1′-naphthalene]] | 32 |  | 82 | ≤ 3
22 | N#Cc1ccc2c(c1)CCC[C@@]21CN2C=C(C(F)(F)F)C=C(OC(F)F)C2=N1 [Example 38, (S)-8-(difluoromethoxy)-6-(trifluoromethyl)-3′,4′-dihydro-2′H,3H-spiro[imidazo[1,2-a]pyridine-2,1′-naphthalene]-6′-carbonitrile] | 84 |  | 322 | 12
23 | N#CC1=CN2C[C@@]3(CCSc4c3ccc(Cl)c4F)N=C2C(OC(F)F)=C1 [Example 64, (S)-7′-chloro-8-(difluoromethoxy)-8′-fluoro-3H-spiro[imidazo[1,2-a]pyridine-2,4′-thiochroman]-6-carbonitrile] | 51 |  | 236 | 10
24 | FC(F)OC1=CC(C(F)(F)F)=CN2C[C@@]3(CCOc4c(Cl)cccc43)N=C12 [Example 48, (S)-8-chloro-8′-(difluoromethoxy)-6′-(trifluoromethyl)-3′H-spiro[chroman-4,2′-imidazo[1,2-a]pyridine]] | 63 |  | 974 | ≤ 10
25 | FC1=CC(C(F)(F)F)=CN2C[C@@]3(CCCc4c3ccc(F)c4F)N=C12 [Example 29, (S)-5′,6′,8-trifluoro-6-(trifluoromethyl)-3′,4′-dihydro-2′H,3H-spiro[imidazo[1,2-a]pyridine-2,1′-naphthalene]] | 93 |  | 1310 | 8
26 | COc1ccc2c(c1F)OCC[C@@]21CN2C=C(C(F)(F)F)C=C(OC(F)F)C2=N1 [Example 103, (S)-8′-(difluoromethoxy)-8-fluoro-7-methoxy-6′-(trifluoromethyl)-3′H-spiro[chromane-4,2′-imidazo[1,2-a]pyridine]] | 109 |  | 417 | 42
